Source: article PMC3113660 (Journal of medicinal chemistry, 2010)
Counter-ions that a name gives are not always drawn. Like-named read-outs stand apart in the source and are kept apart here.

Assays:
[1] = test system: Trypanosoma brucei rhodesiense (STIB900); assay: In vitro growth inhibition assay of T. brucei rhodesiense; assay type: cell-based
[2] = test system: Plasmodium falciparum (K1, resistant to chloroquine); assay: In vitro growth inhibition assay of P. falciparum; assay type: cell-based; conditions: for IC50: Plasmodium falciparum, K1, read-out: antiplasmodial IC50, P. falciparum, in vitro
[3] = test system: T. brucei rhodesiense STIB900; assay type: in vivo, mice; conditions: for cures: number of mice that survive and are parasite free for 60 days; for toxicity in the in vivo model (mice died due to toxicity): infected mice
[4] = relative to bis(N-isopropyl)amidine 32

COc1cc(C(=N)NC(C)C)ccc1-n1cc(-c2cccc(C(=N)NC(C)C)c2)nn1.Cl.Cl [Compound 20, 1-(4-N-Isopropylamidino-2-methoxyphenyl)-4-(3-N-isopropylamidinophenyl)-1H-1,2,3-triazole Dihydrochloride]
fold less active against T. brucei rhodesiense ([1]; relative to congener 19): 178 fold
IC50 [2]: < 0.058 µM

COc1cc(C2=NCCN2)ccc1-n1cc(-c2cccc(C3=NCCN3)c2)nn1.Cl.Cl [Compound 21, 1-[4-(4,5-Dihydro-1H-imidazol-2-yl)-2-methoxyphenyl]-4-[3-(4,5-dihydro-1H-imidazol-2-yl)phenyl]-1H-1,2,3-triazole Dihydrochloride]
fold less active against T. brucei rhodesiense ([1]; relative to congener 19): 170 fold

Cl.Cl.N=C(N)c1ccc(-c2cn(-c3cccc(C(=N)N)c3)nn2)cc1 [Compound 31, 1-(3-Amidinophenyl)-4-(4-amidinophenyl)-1H-1,2,3-triazole Dihydrochloride]
cures ([3]; 4 × 5 mg/kg ip): curing one out of four mice

Cl.Cl.c1cc(C2=NCCN2)cc(-n2cc(-c3ccc(C4=NCCN4)cc3)nn2)c1 [Compound 33, 1-[3-(4,5-Dihydro-1H-imidazol-2-yl)phenyl]-4-[4-(4,5-dihydro-1H-imidazol-2-yl)phenyl]-1H-1,2,3-triazole Dihydrochloride]
fold less active against T. brucei rhodesiense ([1]; relative to diamidine 31): 77 fold

Cl.Cl.N=C(N)c1cccc(-n2cc(-c3ccc(C(=N)N)cc3O)nn2)c1 [Compound 43, 4-(4-Amidino-2-hydroxyphenyl)-1-(3-amidinophenyl)-1H-1,2,3-triazole Dihydrochloride]
SIT, selectivity index for T. brucei rhodesiense ([1]; ratio IC50 (L6)/IC50 (T. brucei rhodesiense)): >26250
IC50 [2]: < 0.058 µM
cures ([3]; 4 × 5 mg/kg ip): curing at least two out of four animals

COc1ccc(C(=N)N)cc1-c1cn(-c2cccc(C(=N)N)c2)nn1.Cl.Cl [Compound 7, 4-(5-Amidino-2-methoxyphenyl)-1-(3-amidinophenyl)-1H-1,2,3-triazole Dihydrochloride]
fold less active against T. brucei rhodesiense ([1]; relative to diamidine 1): 20 fold
IC50 [2]: < 0.058 µM

COc1cc(C(=N)N)ccc1-c1cn(-c2cccc(C(=N)N)c2)nn1.Cl.Cl [Compound 37, 4-(4-Amidino-2-methoxyphenyl)-1-(3-amidinophenyl)-1H-1,2,3-triazole Dihydrochloride]
IC50 [2]: < 0.058 µM
cures ([3]; 4 × 1 mg/kg ip): no cures

Cl.Cl.N=C(N)c1ccc(-c2cn(-c3ccc(C(=N)N)cc3O)nn2)cc1 [Compound 55, 1-(4-Amidino-2-hydroxyphenyl)-4-(4-amidinophenyl)-1H-1,2,3-triazole Dihydrochloride]
fold less active against T. brucei rhodesiense ([1]; relative to dication 46): 125 fold

COc1cc(C(=N)NC(C)C)ccc1-c1cn(-c2cccc(C(=N)NC(C)C)c2)nn1.Cl.Cl [Compound 38, 4-(4-N-Isopropylamidino-2-methoxyphenyl)-1-(3-N-isopropylamidinophenyl)-1H-1,2,3-triazole Dihydrochloride]
fold less active against T. brucei rhodesiense ([1]; relative to diamidine 37): 141 fold
IC50 [2]: < 0.058 µM

CC(C)NC(=N)c1ccc(-c2cn(-c3cccc(C(=N)NC(C)C)c3)nn2)cc1.Cl.Cl [Compound 32, 1-(3-N-Isopropylamidinophenyl)-4-(4-N-isopropylamidinophenyl)-1H-1,2,3-triazole Dihydrochloride]
fold less active against T. brucei rhodesiense ([1]; relative to diamidine 31): 77 fold
IC50 [2]: < 0.058 µM

CC(C)NC(=N)c1ccc(-n2cc(-c3cccc(C(=N)NC(C)C)c3)nn2)cc1.Cl.Cl [Compound 17, 1-(4-N-Isopropylamidinophenyl)-4-(3-N-isopropylamidinophenyl)-1H-1,2,3-triazole Dihydrochloride]
fold less active against T. brucei rhodesiense ([1]; relative to diamidine 16): 67 fold
IC50 [2]: < 0.058 µM

Cl.Cl.c1cc(C2=NCCN2)cc(-c2cn(-c3ccc(C4=NCCN4)cc3)nn2)c1 [Compound 18, 1-[4-(4,5-Dihydro-1H-imidazol-2-yl)phenyl]-4-(3-(4,5-dihydro-1H-imidazol-2-yl)phenyl)-1H-1,2,3-triazole Dihydrochloride]
fold less active against T. brucei rhodesiense ([1]; relative to diamidine 16): 25 fold

CC(C)NC(=N)c1ccc(-c2cn(-c3ccc(C(=N)NC(C)C)cc3)nn2)cc1.Cl.Cl [Compound 47, 1,4-Bis(4-N-isopropylamidinophenyl)-1H-1,2,3-triazole Dihydrochloride]
IC50 [2]: < 0.058 µM
toxicity in the in vivo model (mice died due to toxicity) ([3]; 4 × 5 mg/kg ip): toxic

Cl.Cl.Oc1ccc(C2=NCCN2)cc1-n1cc(-c2ccc(C3=NCCN3)cc2)nn1 [Compound 42, 1-[5-(4,5-Dihydro-1H-imidazol-2-yl)-2-hydroxyphenyl]-4-[4-(4,5-dihydro-1H-imidazol-2-yl)phenyl]-1H-1,2,3-triazole Dihydrochloride]
fold less active against T. brucei rhodesiense ([1]; relative to diimidazoline 33): 43 fold

COc1cc(C2=NCCN2)ccc1-c1cn(-c2cccc(C3=NCCN3)c2)nn1.Cl.Cl [Compound 39, 4-[4-(4,5-Dihydro-1H-imidazol-2-yl)-2-methoxyphenyl]-1-[3-(4,5-dihydro-1H-imidazol-2-yl)phenyl]-1H-1,2,3-triazole Dihydrochloride]
fold less active against T. brucei rhodesiense ([1]; relative to diamidine 37): 804 fold

Oc1cc(C2=NCCN2)ccc1-n1cc(-c2ccc(C3=NCCN3)cc2)nn1 [Compound 57, 1-[4-(4,5-Dihydro-1H-imidazol-2-yl)-2-hydroxyphenyl]-4-[4-(4,5-dihydro-1H-imidazol-2-yl)phenyl]-1H-1,2,3-triazole Dihydrochloride]
IC50 [2]: < 0.058 µM

Cl.Cl.N=C(N)c1cccc(-c2cn(-c3cc(C(=N)N)ccc3O)nn2)c1 [Compound 10, 1-(5-Amidino-2-hydroxyphenyl)-4-(3-amidinophenyl)-1H-1,2,3-triazole Dihydrochloride]
fold less active against T. brucei rhodesiense ([1]; relative to diamidine 1): 600 fold
fold less potent against P. falciparum ([2]; relative to 2-methoxy analogue 4): 320 fold
fold less potent against P. falciparum ([2]; relative to dication 1): 425 fold

COc1ccc(C2=NCCN2)cc1-n1cc(-c2cccc(C3=NCCN3)c2)nn1.Cl.Cl [Compound 6, 1-[5-(4,5-Dihydro-1H-imidazol-2-yl)-2-methoxyphenyl]-4-[3-(4,5-dihydro-1H-imidazol-2-yl)phenyl]-1H-1,2,3-triazole Dihydrochloride]
fold as active against T. brucei rhodesiense ([1]; relative to 2-O-demethylated analogue 12): 13 fold
IC50 [2]: < 0.058 µM
fold more active against P. falciparum ([2]; relative to diimidazoline 3): 12 fold

CC(C)NC(=N)c1ccc(-n2cc(-c3cc(C(=N)NC(C)C)ccc3O)nn2)cc1 [Compound 29, 4-(5-N-Isopropylamidino-2-hydroxyphenyl)-1-(4-N-isopropylamidinophenyl)-1H-1,2,3-triazole Dihydrochloride]
IC50 [2]: < 0.058 µM

COc1ccc(C(=N)N)cc1-n1cc(-c2cccc(C(=N)N)c2)nn1.Cl.Cl [Compound 4, 1-(5-Amidino-2-methoxyphenyl)-4-(3-amidinophenyl)-1H-1,2,3-triazole Dihydrochloride]
fold as active against T. brucei rhodesiense ([1]; relative to 2-O-demethylated analogue 10): 1000 fold
IC50 [2]: < 0.058 µM

COc1ccc(C(=N)NC(C)C)cc1-c1cn(-c2ccc(C(=N)NC(C)C)cc2)nn1.Cl.Cl [Compound 23, 4-(5-N-Isopropylamidino-2-methoxyphenyl)-1-(4-N-isopropylamidinophenyl)-1H-1,2,3-triazole Dihydrochloride]
IC50 [2]: < 0.058 µM
toxicity in the in vivo model (mice died due to toxicity) ([3]; 4 × 5 mg/kg ip, 5 mg/kg): toxic

CC(C)NC(=N)c1cccc(-c2cn(-c3cccc(C(=N)NC(C)C)c3)nn2)c1.Cl.Cl [Compound 2, 1,4-Bis(3-N-isopropylamidinophenyl)-1H-1,2,3-triazole Dihydrochloride]
fold less active against T. brucei rhodesiense ([1]; relative to diamidine 1): ~170 fold

COc1ccc(C2=NCCN2)cc1-n1cc(-c2ccc(C3=NCCN3)cc2)nn1 [Compound 36, 1-[5-(4,5-Dihydro-1H-imidazol-2-yl)-2-methoxyphenyl]-4-[4-(4,5-dihydro-1H-imidazol-2-yl)phenyl]-1H-1,2,3-triazole Dihydrochloride]
IC50 [2]: < 0.058 µM

CC(C)NC(=N)c1cccc(-n2cc(-c3ccc(C(=N)NC(C)C)cc3O)nn2)c1 [Compound 44, 4-(4-N-Isopropylamidino-2-hydroxyphenyl)-1-(3-N-isopropylamidinophenyl)-1H-1,2,3-triazole Dihydrochloride]
IC50 [2]: < 0.058 µM

COc1cc(C(=N)N)ccc1-c1cn(-c2ccc(C(=N)N)cc2)nn1.Cl.Cl [Compound 52, 4-(4-Amidino-2-methoxyphenyl)-1-(4-amidinophenyl)-1H-1,2,3-triazole Dihydrochloride]
cures ([3]; 4 × 5 mg/kg ip): curing at least two out of four animals

COc1ccc(C2=NCCN2)cc1-c1cn(-c2ccc(C3=NCCN3)cc2)nn1 [Compound 24, 4-[5-(4,5-Dihydro-1H-imidazol-2-yl)-2-methoxyphenyl]-1-[4-(4,5-dihydro-1H-imidazol-2-yl)phenyl]-1H-1,2,3-triazole Dihydrochloride]
IC50 [2]: < 0.058 µM

Cl.Cl.c1cc(C2=NCCN2)cc(-c2cn(-c3cccc(C4=NCCN4)c3)nn2)c1 [Compound 3, 1,4-Bis[3-(4,5-dihydro-1H-imidazol-2-yl)phenyl]-1H-1,2,3-triazole Dihydrochloride]
fold less active against T. brucei rhodesiense ([1]; relative to diamidine 1): ~170 fold

CC(C)NC(=N)c1ccc(-c2cn(-c3cc(C(=N)NC(C)C)ccc3O)nn2)cc1.Cl.Cl [Compound 41, 1-(5-N-Isopropylamidino-2-hydroxyphenyl)-4-(4-N-isopropylamidinophenyl)-1H-1,2,3-triazole Dihydrochloride]
fold less active against T. brucei rhodesiense [1, 4]: 33 fold
fold less active against P. falciparum [2, 4]: 123 fold

Cl.Cl.N=C(N)c1cccc(-c2cn(-c3ccc(C(=N)N)cc3O)nn2)c1 [Compound 25, 1-(4-Amidino-2-hydroxyphenyl)-4-(3-amidinophenyl)-1H-1,2,3-triazole Dihydrochloride]
fold less active against T. brucei rhodesiense ([1]; relative to diamidine 16): ~22 fold

Cl.Cl.Oc1ccc(C2=NCCN2)cc1-n1cc(-c2cccc(C3=NCCN3)c2)nn1 [Compound 12, 1-[5-(4,5-Dihydro-1H-imidazol-2-yl)-2-hydroxyphenyl]-4-[3-(4,5-dihydro-1H-imidazol-2-yl)phenyl]-1H-1,2,3-triazole Dihydrochloride]
fold less active against T. brucei rhodesiense ([1]; relative to diimidazoline 3): 7 fold
